Reference: patent US20120225062A1 (priority 2011, published 2012)

What was measured:
Pim 3 = Pim 3 (Homo sapiens, UniProt Q86V86); test: Pim 3 AlphaScreen assay (high ATP)
[1] = tested on: KMS11 (human myeloma cell line); test: Cell Proliferation Assay (CellTiter-Glo, 3 days); type: cell-based; conditions: KMS-11, 72 h, KMS11-luc cells
Procedure, shortened: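 EC50 from CellTiter-Glo luminescence after 3-day, 37° C compound treatment of KMS11 cells seeded at 2000 per well in IMDM plus 10% FBS.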

Pim 1 = Pim 1 (Homo sapiens, UniProt P11309); test: Pim 1 AlphaScreen assay (high ATP)
Sequence of Pim 1 (P11309 whole entry): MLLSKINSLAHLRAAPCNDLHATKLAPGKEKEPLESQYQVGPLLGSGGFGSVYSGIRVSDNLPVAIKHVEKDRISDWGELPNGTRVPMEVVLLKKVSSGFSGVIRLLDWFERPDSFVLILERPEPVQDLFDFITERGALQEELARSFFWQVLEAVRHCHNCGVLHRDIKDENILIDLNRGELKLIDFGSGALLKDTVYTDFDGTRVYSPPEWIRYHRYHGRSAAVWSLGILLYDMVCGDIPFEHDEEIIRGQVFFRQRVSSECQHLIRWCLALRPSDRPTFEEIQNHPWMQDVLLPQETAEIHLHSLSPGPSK

Pim 2 = Pim 2 (Homo sapiens, UniProt Q9P1W9); test: Pim 2 AlphaScreen assay (high ATP)
Sequence of Pim 2 (Q9P1W9 whole entry): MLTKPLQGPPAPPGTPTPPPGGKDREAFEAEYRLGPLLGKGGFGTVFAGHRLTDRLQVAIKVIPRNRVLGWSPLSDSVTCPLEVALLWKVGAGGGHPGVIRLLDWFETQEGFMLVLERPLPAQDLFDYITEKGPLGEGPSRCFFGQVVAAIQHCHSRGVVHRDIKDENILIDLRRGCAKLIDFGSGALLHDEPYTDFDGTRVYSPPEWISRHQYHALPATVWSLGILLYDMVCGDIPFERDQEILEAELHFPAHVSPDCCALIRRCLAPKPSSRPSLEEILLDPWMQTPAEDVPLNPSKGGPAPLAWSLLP

IC50 (Pim 3) [nM]	EC50 [1] [nM]	IC50 (Pim 1) [nM]	IC50 (Pim 2) [nM]	Structure (SMILES)
19.6	403	0.08	29.7	N#CC1(c2cc(F)c(-c3nc(C(=O)Nc4cnccc4[C@@H]4CCC[C@H](N)C4)ccc3F)c(F)c2)CCOCC1 [Example 172, N-(4-((1R,3S)-3-aminocyclohexyl)pyridin-3-yl)-6-(4-(4-cyanotetrahydro-2H-pyran-4-yl)-2,6-difluorophenyl)-5-fluoropicolinamide]
0.35	52	0.01	1.03	CC(C)Oc1cc(F)c(-c2nc(C(=O)Nc3cnccc3[C@H]3C[C@@H](N)[C@H](O)[C@@H](C)C3)ccc2F)c(F)c1 [Example 62, N-(4-((1R,3R,4R,5S)-3-amino-4-hydroxy-5-methylcyclohexyl)pyridin-3-yl)-6-(2,6-difluoro-4-isopropoxyphenyl)-5-fluoropicolinamide]
1.71	863	0.04	6.05	C[C@H]1C[C@@H](c2ccncc2NC(=O)c2ccc(F)c(-c3c(F)cc(OC4CCOCC4)cc3F)n2)C[C@@H](N)[C@H]1O [Example 140, N-(4-((1R,3R,4S,5S)-3-amino-4-hydroxy-5-methylcyclohexyl)pyridin-3-yl)-6-(2,6-difluoro-4-(tetrahydro-2H-pyran-4-yloxy)phenyl)-5-fluoropicolinamide]
1.72	148	0.03	2.96	C[C@@H]1C[C@H](N)C[C@H](c2ccncc2NC(=O)c2ccc(F)c(-c3c(F)cc(COC4CCOCC4)cc3F)n2)C1 [Example 149, N-(4-((1R,3S,5S)-3-amino-5-methylcyclohexyl)pyridin-3-yl)-6-(2,6-difluoro-4-((tetrahydro-2H-pyran-4-yloxy)methyl)phenyl)-5-fluoropicolinamide]
0.36	30	0.02	1.3	C[C@H]1C[C@@H](c2ccncc2NC(=O)c2nc(-c3c(F)cc(C(C)(C)O)cc3F)c(F)cc2N)C[C@@H](N)[C@@H]1O [Example 101, 3-amino-N-(4-((1R,3R,4R,5S)-3-amino-4-hydroxy-5-methylcyclohexyl)pyridin-3-yl)-6-(2,6-difluoro-4-(2-hydroxypropan-2-yl)phenyl)-5-fluoropicolinamide]
0.13	15	0.01	0.75	C[C@H]1CN(c2ccncc2NC(=O)c2nc(-c3c(F)cc(C(C)(C)O)cc3F)c(F)cc2N)C[C@@H](N)[C@@H]1O [Example 102, 3-amino-N-(4-((3R,4R,5S)-3-amino-4-hydroxy-5-methylpiperidin-1-yl)pyridin-3-yl)-6-(2,6-difluoro-4-(2-hydroxypropan-2-yl)phenyl)-5-fluoropicolinamide]
1.08	64	0.04	2.33	C[C@@H]1C[C@H](N)C[C@H](c2ccncc2NC(=O)c2ccc(F)c(-c3c(F)ccc(OCCO)c3F)n2)C1 [Example 29, N-(4-((1R,3S,5S)-3-amino-5-methylcyclohexyl)pyridin-3-yl)-6-(2,6-difluoro-3-(2-hydroxyethoxy)phenyl)-5-fluoropicolinamide]
1.27	187	0.04	9.36	COCCOc1ccc(F)c(-c2nc(C(=O)Nc3cnccc3[C@@H]3C[C@H](C)C[C@H](N)C3)ccc2F)c1F [Example 13, N-(4-((1R,3S,5S)-3-amino-5-methylcyclohexyl)pyridin-3-yl)-6-(2,6-difluoro-3-(2-methoxyethoxy)phenyl)-5-fluoropicolinamide]
0.13	4	0.01	0.73	C[C@@H]1C[C@H](N)C[C@H](c2ccncc2NC(=O)c2nc(-c3c(F)cc(C4(O)COC4)cc3F)c(F)cc2N)C1 [Example 221, 3-amino-N-(4-((1R,3S,5S)-3-amino-5-methylcyclohexyl)pyridin-3-yl)-6-(2,6-difluoro-4-(3-hydroxyoxetan-3-yl)phenyl)-5-fluoropicolinamide]
0.78	381	0.02	1.33	C[C@@H]1C[C@H](N)C[C@H](c2ccncc2NC(=O)c2ccc(F)c(-c3c(F)cc(OCC4CCOCC4)cc3F)n2)C1 [Example 177, N-(4-((1R,3S,5S)-3-amino-5-methylcyclohexyl)pyridin-3-yl)-6-(2,6-difluoro-4-((tetrahydro-2H-pyran-4-yl)methoxy)phenyl)-5-fluoropicolinamide]
0.68	251	0.01	1.09	C[C@@H]1C[C@H](N)C[C@H](c2ccncc2NC(=O)c2ccc(F)c(-c3c(F)cc(C4CCS(=O)(=O)CC4)cc3F)n2)C1 [Example 202, N-(4-((1R,3S,5S)-3-amino-5-methylcyclohexyl)pyridin-3-yl)-6-(4-(1,1-dioxidotetrahydro-2H-thiopyran-4-yl)-2,6-difluorophenyl)-5-fluoropicolinamide]
0.61	30	0.02	1.24	C[C@@H]1C[C@H](N)C[C@H](c2ccncc2NC(=O)c2nc(-c3c(F)cc(C4COC4)cc3F)c(F)cc2N)C1 [Example 241, 3-amino-N-(4-((1R,3S,5S)-3-amino-5-methylcyclohexyl)pyridin-3-yl)-6-(2,6-difluoro-4-(oxetan-3-yl)phenyl)-5-fluoropicolinamide]
0.8	139	0.03	2.77	C[C@H]1C[C@@H](c2ccncc2NC(=O)c2ccc(F)c(-c3c(F)cc(OCC4CC4)cc3F)n2)C[C@@H](N)[C@@H]1O [Example 42, N-(4-((1R,3R,4R,5S)-3-amino-4-hydroxy-5-methylcyclohexyl)pyridin-3-yl)-6-(4-(cyclopropylmethoxy)-2,6-difluorophenyl)-5-fluoropicolinamide]
0.38	34	0.01	1.16	C[C@H]1C[C@@H](c2ccncc2NC(=O)c2ccc(F)c(-c3c(F)cc(N4CCOCC4)cc3F)n2)C[C@@H](N)[C@@H]1O [Example 169, N-(4-((1R,3R,4R,5S)-3-amino-4-hydroxy-5-methylcyclohexyl)pyridin-3-yl)-6-(2,6-difluoro-4-morpholinophenyl)-5-fluoropicolinamide]
4.45	583	0.05	4.54	C[C@@H]1C[C@H](N)C[C@H](c2ccncc2NC(=O)c2ccc(F)c(-c3c(F)cc(C4(F)COC4)cc3F)n2)C1 [Example 135, N-(4-((1R,3S,5S)-3-amino-5-methylcyclohexyl)pyridin-3-yl)-6-(2,6-difluoro-4-(3-fluorooxetan-3-yl)phenyl)-5-fluoropicolinamide]
0.37	69	0.02	1.55	CC(C)Oc1cc(F)c(-c2nc(C(=O)Nc3cnccc3[C@H]3C[C@@H](N)[C@H](O)[C@@H](C)C3)c(N)cc2F)c(F)c1 [Example 97]
2.93	201	0.13	32.3	COCCOc1ccc(F)c(-c2nc(C(=O)Nc3cnccc3[C@H]3C[C@@H](N)[C@H](O)[C@@H](C)C3)ccc2F)c1F [Example 18, N-(4-((1R,3R,4R,5S)-3-amino-4-hydroxy-5-methylcyclohexyl)pyridin-3-yl)-6-(2,6-difluoro-3-(2-methoxyethoxy)phenyl)-5-fluoropicolinamide]
0.95	52	0.02	1.36	C[C@@H]1C[C@H](N)C[C@H](c2ccncc2NC(=O)c2ccc(F)c(-c3c(F)cc(N4CCOCC4)cc3F)n2)C1 [Example 168, N-(4-((1R,3S,5S)-3-amino-5-methylcyclohexyl)pyridin-3-yl)-6-(2,6-difluoro-4-morpholinophenyl)-5-fluoropicolinamide]
1.43	619	0.05	2.56	C[C@H]1C[C@@H](c2ccncc2NC(=O)c2ccc(F)c(-c3c(F)cc(OCC(F)(F)F)cc3F)n2)C[C@@H](N)[C@@H]1O [Example 197, N-(4-((1R,3R,4R,5S)-3-amino-4-hydroxy-5-methylcyclohexyl)pyridin-3-yl)-6-(2,6-difluoro-4-(2,2,2-trifluoroethoxy)phenyl)-5-fluoropicolinamide]
0.39	24	0.01	1.29	C[C@H]1C[C@@H](c2ccncc2NC(=O)c2ccc(F)c(-c3c(F)cc(C4CCOCC4)cc3F)n2)C[C@@H](N)[C@@H]1O [Example 94, N-(4-((1R,3R,4R,5S)-3-amino-4-hydroxy-5-methylcyclohexyl)pyridin-3-yl)-6-(2,6-difluoro-4-(tetrahydro-2H-pyran-4-yl)phenyl)-5-fluoropicolinamide]
0.24	84	0.08	4.16	C[C@@H]1C[C@H](N)C[C@H](c2ccncc2NC(=O)c2ccc(F)c(-c3c(F)cc(OC4COC4)cc3F)n2)C1 [Example 48, N-(4-((1R,3S,5S)-3-amino-5-methylcyclohexyl)pyridin-3-yl)-6-(2,6-difluoro-4-(oxetan-3-yloxy)phenyl)-5-fluoropicolinamide]
1.28	210	0.03	2.47	C[C@@H]1C[C@H](N)C[C@H](c2ccncc2NC(=O)c2cccc(-c3c(F)cc(OC4CCOCC4)cc3F)n2)C1 [Example 187, N-(4-((1R,3S,5S)-3-amino-5-methylcyclohexyl)pyridin-3-yl)-6-(2,6-difluoro-4-(tetrahydro-2H-pyran-4-yloxy)phenyl)picolinamide]
